Test results as given in patent EP4332093A1, “SALT CONTAINING PIPERAZINE POLYCYCLIC DERIVATIVE, CRYSTAL FORM THEREOF, PREPARATION METHOD THEREFOR, AND USE THEREOF” (Shanghai Hansoh Biomedical Co., Ltd., priority 2021, dated 2022).
Where two headings read alike, the source gives them in different places.

Key:
[1] = Pharmacokinetic assay in Balb/c mice (plasma and brain tissue); assay type: in vivo; conditions: male, mouse, po, p.o. 5 mg/kg; for AUC(0-t): read-out: Area under curve AUC0-t; for Tmax: read-out: Peak time tmax; for Cmax: read-out: Plasma concentration Cmax; for AUC(0-inf): read-out: Area under curve AUC0-∞; for MRT: read-out: Average residence time MRT; for half-life: read-out: Half life t1/2 (converted)
Procedure, shortened: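 Fasted male Balb/c mice (12 per group) received 5 mg/kg p.o. in 0.5% CMC-Na/1% Tween80. Plasma and whole brain were collected […]. Compound was quantified by LC/MS/MS after acetonitrile precipitation, with PK parameters from noncompartmental analysis.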

[2] = molecular target: T1, D3 receptor (Homo sapiens, UniProt P35462); experiment: cAMP content in cells stably expressing D3 receptors (CHO-D3, forskolin, HTRF); assay type: cell-based
T1 construct: expressed in transfected cells

[3] = molecular target: 5-HT2A receptor (Homo sapiens, UniProt P28223); experiment: Calcium ion mobility in cells stably expressing 5-HT2A receptors (Flp-In-CHO-5HT2A, FLIPR); assay type: cell-based; set-up: expressed in transfected cells; conditions: Flp-In-CHO-5HT2A stable pool, 5HT stimulation
Chain of 5-HT2A receptor (P28223 whole entry): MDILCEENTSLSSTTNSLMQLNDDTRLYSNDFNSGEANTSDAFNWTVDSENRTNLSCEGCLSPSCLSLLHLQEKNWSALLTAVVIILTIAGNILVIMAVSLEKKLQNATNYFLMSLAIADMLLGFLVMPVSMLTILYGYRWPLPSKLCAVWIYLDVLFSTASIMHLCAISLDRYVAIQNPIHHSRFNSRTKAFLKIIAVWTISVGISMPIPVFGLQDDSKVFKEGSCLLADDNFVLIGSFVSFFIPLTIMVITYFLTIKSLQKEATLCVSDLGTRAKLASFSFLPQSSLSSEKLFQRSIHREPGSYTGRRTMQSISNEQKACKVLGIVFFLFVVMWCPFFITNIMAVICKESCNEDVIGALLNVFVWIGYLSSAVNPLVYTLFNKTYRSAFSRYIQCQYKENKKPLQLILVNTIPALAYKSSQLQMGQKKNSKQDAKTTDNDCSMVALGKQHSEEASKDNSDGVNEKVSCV

T1 sequence (P35462 whole entry): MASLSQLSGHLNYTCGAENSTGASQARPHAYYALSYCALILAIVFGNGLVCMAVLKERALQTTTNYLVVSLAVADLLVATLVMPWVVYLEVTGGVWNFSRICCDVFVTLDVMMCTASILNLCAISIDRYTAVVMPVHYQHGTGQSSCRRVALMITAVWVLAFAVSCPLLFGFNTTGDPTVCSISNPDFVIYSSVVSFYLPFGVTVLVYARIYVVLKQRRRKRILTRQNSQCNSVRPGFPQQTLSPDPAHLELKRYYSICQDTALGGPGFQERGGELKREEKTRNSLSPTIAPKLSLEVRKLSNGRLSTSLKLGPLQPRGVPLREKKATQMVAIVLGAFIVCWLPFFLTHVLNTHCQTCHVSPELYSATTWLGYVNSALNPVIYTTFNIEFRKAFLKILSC

SMILES | AUC(0-t) ([1]; Brain) | Tmax ([1]; Brain) | Cmax ([1]; Brain) | AUC(0-t) ([1]; Plasma) | AUC(0-inf) ([1]; Plasma) | MRT ([1]; Plasma) | half-life ([1]; Plasma) | Tmax ([1]; Plasma) | Cmax ([1]; Plasma) | EC50 [2] | IC50 [3] | AUC(0-inf) ([1]; Brain)
O=C(N[C@H]1C[C@@H](CCN2CCN(c3cccc(Cl)c3Cl)CC2)C1)c1ncco1 [Example 12B, N-(Cis-3-(2-(4-(2,3-dichlorophenyl)piperazin-1-yl)ethyl)cyclobutyl)oxazole-2-carbo xamide] | 5200 ng·h/mL | 1 h | 1870 ng/mL | 1620 ng·h/mL | 1710 ng·h/mL | 2.4 h | 108 min | 0.5 h | 715 ng/mL | 0.7 nM | 11.6 nM | –
O=C(NC1CC(CCN2CCN(c3cccc(Cl)c3Cl)CC2)C1)c1ncco1 (stereo not shown) [Example 12, N-(3-(2-(4-(2,3-Dichlorophenyl)piperazin-1-yl)ethyl)cyclobutyl)oxazole-2-carboxamide] | 4830 ng·h/mL | 1 h | 1200 ng/mL | 1040 ng·h/mL | 1230 ng·h/mL | 3.9 h | 168 min | 0.5 h | 391 ng/mL | 1.7 nM | 5.2 nM | 4880 ng·h/mL
O=C(N[C@H]1C[C@H](CCN2CCN(c3cccc(Cl)c3Cl)CC2)C1)c1cccc2ncccc12 [Example 19A, N-(Trans-3-(2-(4-(2,3-dichlorophenyl)piperazin-1-yl)ethyl)cyclobutyl)quinoline-5-c arboxamide] | 1240 ng·h/mL | 1 h | 372 ng/mL | 456 ng·h/mL | 471 ng·h/mL | 1.8 h | 102 min | 0.5 h | 349 ng/mL | 1.6 nM | 7.67 nM | –
O=C(N[C@H]1C[C@H](CCN2CCN(c3cccc(Cl)c3Cl)CC2)C1)C1(O)CC1 [Example 6A, N-(Trans-3-(2-(4-(2,3-dichlorophenyl)piperazin-1-yl)ethyl)cyclobutyl)-1-hydroxycy clopropane-1-carboxamide] | 1080 ng·h/mL | 1 h | 321 ng/mL | 1420 ng·h/mL | 1440 ng·h/mL | 1.8 h | 78 min | 0.5 h | 745 ng/mL | 0.6 nM | 3.07 nM | –
O=C(N[C@H]1C[C@H](CCN2CCN(c3cccc(Cl)c3Cl)CC2)C1)c1nccs1 [Example 7A, N-(Trans-3-(2-(4-(2,3-dichlorophenyl)piperazin-1-yl)ethyl)cyclobutyl)thiazole-2-car boxamide] | 1350 ng·h/mL | 1 h | 179 ng/mL | 395 ng·h/mL | 501 ng·h/mL | 5.3 h | 222 min | 1 h | 102 ng/mL | 1 nM | 2.74 nM | –
O=C(N[C@H]1C[C@H](CCN2CCN(c3cccc(Cl)c3Cl)CC2)C1)c1ncco1 [Example 12A, N-(Trans-3-(2-(4-(2,3-dichlorophenyl)piperazin-1-yl)ethyl)cyclobutyl)oxazole-2-car boxamide] | 8130 ng·h/mL | 1 h | 1760 ng/mL | 1840 ng·h/mL | 1970 ng·h/mL | 3.1 h | 114 min | 0.5 h | 673 ng/mL | 0.6 nM | 2.21 nM | –
